In patent US10059717B2, “Urea compounds containing 3,4-dihydropyrimido[4,5-D]pyrimidin-2(1H)-one skeleton as protein kinase inhibitors” (KOREA INSTITUTE OF SCIENCE AND TECHNOLOGY, priority 2016, dated 2018):

Assays:
Assay in all cases: Kinase panel biochemical assay
Conditions in all cases: 1 μM single concentration, read-out: % residual enzyme activity
EPHB1 = EPHB1 (Homo sapiens, UniProt P54762)
Protocol: (§1) In order to measure the protein kinase inhibitory activity (% inhibition) of the compounds of the present invention, biochemical assays were performed on the full kinase panel listed in the following Table 1.
(§2) As an test compound, 1-(3-(7-((6-(4-ethylpiperazine-1-carbonyl)pyridin-3-yl)amino)-1-methyl-2-oxo-1,4-dihydropyrimido[4,5-d]pyrimidin-3(2H)-yl)-4-methylphenyl)-3-(2-methoxyphenyl)urea (Compound No. 14) was used. The kinase inhibitory efficacy was measured upon treatment with a 1 μM single concentration of the test compound to calculate % residual enzyme activity value.
(§3) ABL1, FGFR2, TAOK2/TAO1, EPHA5, EPHB2, EPHB3, RET, LYN B, EPHA2, FRK/PTK5, EPHA8, LCK, EPHB4, FYN, KHS/MAP4K5, DDR1, EPHA3, P38a/MAPK14, EPHA4, FMS, EPHB1, HCK, FGFR1, ABL2/ARG, EPHA6, c-Src, ACK1, FLT4NEGFR3, ERBB4/HER4, DDR2, KDRNEGFR2, LYN, ZAK/MLTK, YES/YES1, BLK, FGR, MLCK2/MYLK2, TAOK1, BMX/ETK, BTK, EPHA1, JAK1, P38b/MAPK11, TIE2/TEK, FLT1NEGFR1, TXK, SRMS, RAF1, SIK1, MLK3/MAP3K11, PEAK1, TRKA, EPHA7, GLK/MAP4K3, MLK2/MAP3K10, TEC, CSK, TRKC, FES/FPS, SIK2, FGFR3, BRK, YSK4/MAP3K19, ARAF, PDGFRb, TNK1, GCK/MAP4K2, PDGFRa, TNIK, TAK1, ERBB2/HER2, LIMK1, HIPK4, FER, EGFR, JAK2, HPK1/MAP4K1, TRKB, RIPK3, LOK/STK10, LIMK2, MLK1/MAP3K9, BRAF, MEKK3, MEK5, STK32B/YANK2, FGFR4, MEKK2, SLK/STK2, FLT3, PKAcg, TAOK3/JIK, TYRO3/SKY, SIK3, IR, LRRK2, PYK2, NEK11, p70S6K/RPS6KB1, LATS2.

FGFR4 = FGFR4 (Homo sapiens, UniProt P22455)
Protocol: as §1, §2, §3

KDRNEGFR2 = KDRNEGFR2 (Homo sapiens, UniProt P35968)
Protocol: as §1, §2, §3

MEKK3 = MEKK3 (Homo sapiens, UniProt Q99759)
Protocol: as §1, §2, §3

EPHA5 = EPHA5 (Homo sapiens, UniProt P54756)
Protocol: as §1, §2, §3

EPHB4 = EPHB4 (Homo sapiens, UniProt P54760)
Protocol: as §1, §2, §3

TRKB = TRKB (Homo sapiens, UniProt Q16620)
Protocol: as §1, §2, §3

FMS = FMS (Homo sapiens, UniProt P07333)
Protocol: as §1, §2, §3

YSK4/MAP3K19 = YSK4/MAP3K19 (Homo sapiens, UniProt Q56UN5)
Protocol: as §1, §2, §3

FGFR3 = FGFR3 (Homo sapiens, UniProt P22607)
Protocol: as §1, §2, §3

MLK2/MAP3K10 = MLK2/MAP3K10 (Homo sapiens, UniProt Q02779)
Protocol: as §1, §2, §3

MLCK2/MYLK2 = MLCK2/MYLK2 (Homo sapiens, UniProt Q9H1R3)
Protocol: as §1, §2, §3

HCK = HCK (Homo sapiens, UniProt P08631)
Protocol: as §1, §2, §3

MEK5 = MEK5 (Homo sapiens, UniProt Q13163)
Protocol: as §1, §2, §3

EPHA3 = EPHA3 (Homo sapiens, UniProt P29320)
Protocol: as §1, §2, §3

LYN = LYN (Homo sapiens, UniProt P07948)
Protocol: as §1, §2, §3

SIK2 = SIK2 (Homo sapiens, UniProt Q9H0K1)
Protocol: as §1, §2, §3

PYK2 = PYK2 (Homo sapiens, UniProt Q14289)
Protocol: as §1, §2, §3

FES/FPS = FES/FPS (Homo sapiens, UniProt P07332)
Protocol: as §1, §2, §3

ERBB2/HER2 = ERBB2/HER2 (Homo sapiens, UniProt P04626)
Protocol: as §1, §2, §3

YES/YES1 = YES/YES1 (Homo sapiens, UniProt P07947)
Protocol: as §1, §2, §3

RAF1 = RAF1 (Homo sapiens, UniProt P04049)
Protocol: as §1, §2, §3

FGR = FGR (Homo sapiens, UniProt P09769)
Protocol: as §1, §2, §3

ZAK/MLTK = ZAK/MLTK (Homo sapiens, UniProt Q9NYL2)
Protocol: as §1, §2, §3

ABL1 = ABL1 (Homo sapiens, UniProt P00519)
Protocol: as §1, §2, §3

BMX/ETK = BMX/ETK (Homo sapiens, UniProt P51813)
Protocol: as §1, §2, §3

MLK1/MAP3K9 = MLK1/MAP3K9 (Homo sapiens, UniProt P80192)
Protocol: as §1, §2, §3

EPHA4 = EPHA4 (Homo sapiens, UniProt P54764)
Protocol: as §1, §2, §3

PDGFRa = PDGFRa (Homo sapiens, UniProt P16234)
Protocol: as §1, §2, §3

EPHB2 = EPHB2 (Homo sapiens, UniProt P29323)
Protocol: as §1, §2, §3

PEAK1 = PEAK1 (Homo sapiens, UniProt Q9H792)
Protocol: as §1, §2, §3

Measured: remaining activity at 1 µM

Chain of FMS (P07333 20-972): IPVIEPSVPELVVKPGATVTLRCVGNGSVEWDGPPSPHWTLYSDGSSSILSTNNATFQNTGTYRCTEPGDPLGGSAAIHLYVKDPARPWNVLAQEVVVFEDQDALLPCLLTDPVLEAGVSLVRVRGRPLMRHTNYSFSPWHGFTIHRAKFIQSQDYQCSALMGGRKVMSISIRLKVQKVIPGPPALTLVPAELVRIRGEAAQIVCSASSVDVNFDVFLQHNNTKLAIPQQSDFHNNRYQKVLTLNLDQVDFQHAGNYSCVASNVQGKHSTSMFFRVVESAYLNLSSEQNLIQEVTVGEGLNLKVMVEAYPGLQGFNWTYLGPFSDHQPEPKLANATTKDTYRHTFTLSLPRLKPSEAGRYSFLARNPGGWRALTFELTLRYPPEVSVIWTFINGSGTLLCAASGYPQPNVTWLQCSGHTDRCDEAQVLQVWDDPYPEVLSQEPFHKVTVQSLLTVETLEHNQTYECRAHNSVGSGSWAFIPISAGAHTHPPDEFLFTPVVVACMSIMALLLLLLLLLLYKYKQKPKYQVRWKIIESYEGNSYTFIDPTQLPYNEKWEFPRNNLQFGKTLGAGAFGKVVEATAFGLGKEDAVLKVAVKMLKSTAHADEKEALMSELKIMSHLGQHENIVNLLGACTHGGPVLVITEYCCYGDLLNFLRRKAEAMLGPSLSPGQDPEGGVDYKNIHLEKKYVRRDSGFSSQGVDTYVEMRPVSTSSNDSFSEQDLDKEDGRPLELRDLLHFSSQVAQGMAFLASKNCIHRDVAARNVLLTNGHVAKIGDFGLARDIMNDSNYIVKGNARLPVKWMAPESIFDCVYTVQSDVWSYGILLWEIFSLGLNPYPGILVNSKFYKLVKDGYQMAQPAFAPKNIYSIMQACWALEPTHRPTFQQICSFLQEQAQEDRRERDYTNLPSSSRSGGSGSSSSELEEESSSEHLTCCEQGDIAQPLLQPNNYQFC
Chain of EPHA3 (P29320 21-983): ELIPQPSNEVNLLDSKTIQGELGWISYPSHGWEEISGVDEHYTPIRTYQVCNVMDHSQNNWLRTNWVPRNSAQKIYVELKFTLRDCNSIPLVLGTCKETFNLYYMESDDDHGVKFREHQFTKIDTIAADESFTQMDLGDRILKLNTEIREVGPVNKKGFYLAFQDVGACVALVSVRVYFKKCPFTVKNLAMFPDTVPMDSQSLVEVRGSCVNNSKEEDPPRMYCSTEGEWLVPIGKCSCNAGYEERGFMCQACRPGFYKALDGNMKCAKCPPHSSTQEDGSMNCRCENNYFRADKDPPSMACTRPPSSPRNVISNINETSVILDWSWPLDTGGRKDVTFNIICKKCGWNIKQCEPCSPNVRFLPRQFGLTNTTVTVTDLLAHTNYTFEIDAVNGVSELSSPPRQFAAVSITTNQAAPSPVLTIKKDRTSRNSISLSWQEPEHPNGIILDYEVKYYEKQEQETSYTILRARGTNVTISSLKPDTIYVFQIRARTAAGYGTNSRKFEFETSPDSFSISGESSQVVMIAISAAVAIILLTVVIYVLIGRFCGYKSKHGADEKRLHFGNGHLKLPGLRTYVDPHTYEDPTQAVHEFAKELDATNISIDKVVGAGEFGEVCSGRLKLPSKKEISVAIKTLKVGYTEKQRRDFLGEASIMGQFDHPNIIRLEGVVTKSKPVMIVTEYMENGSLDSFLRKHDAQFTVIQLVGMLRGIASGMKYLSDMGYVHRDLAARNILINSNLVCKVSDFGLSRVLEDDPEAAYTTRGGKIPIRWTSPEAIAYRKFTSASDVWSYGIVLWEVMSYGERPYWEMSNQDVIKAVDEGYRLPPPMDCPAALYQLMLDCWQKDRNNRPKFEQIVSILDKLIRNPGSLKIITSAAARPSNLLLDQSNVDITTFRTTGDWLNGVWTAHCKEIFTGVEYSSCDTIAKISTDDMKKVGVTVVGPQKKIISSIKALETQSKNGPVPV
Chain of HCK (P08631 whole entry): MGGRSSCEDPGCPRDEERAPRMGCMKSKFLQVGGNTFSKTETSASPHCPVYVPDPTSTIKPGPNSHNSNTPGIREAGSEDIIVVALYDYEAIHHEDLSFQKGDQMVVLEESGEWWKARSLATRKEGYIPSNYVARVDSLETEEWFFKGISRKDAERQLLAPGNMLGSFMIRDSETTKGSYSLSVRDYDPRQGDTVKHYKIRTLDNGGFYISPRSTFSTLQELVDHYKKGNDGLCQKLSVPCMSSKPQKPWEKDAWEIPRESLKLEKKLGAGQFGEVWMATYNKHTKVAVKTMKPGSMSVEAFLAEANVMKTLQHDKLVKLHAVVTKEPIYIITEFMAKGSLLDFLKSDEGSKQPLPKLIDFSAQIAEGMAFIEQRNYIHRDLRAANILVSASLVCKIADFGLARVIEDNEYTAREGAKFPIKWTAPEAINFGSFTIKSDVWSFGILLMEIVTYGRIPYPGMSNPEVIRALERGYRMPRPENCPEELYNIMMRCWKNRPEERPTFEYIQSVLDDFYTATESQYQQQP
Chain of ABL1 (P00519 whole entry): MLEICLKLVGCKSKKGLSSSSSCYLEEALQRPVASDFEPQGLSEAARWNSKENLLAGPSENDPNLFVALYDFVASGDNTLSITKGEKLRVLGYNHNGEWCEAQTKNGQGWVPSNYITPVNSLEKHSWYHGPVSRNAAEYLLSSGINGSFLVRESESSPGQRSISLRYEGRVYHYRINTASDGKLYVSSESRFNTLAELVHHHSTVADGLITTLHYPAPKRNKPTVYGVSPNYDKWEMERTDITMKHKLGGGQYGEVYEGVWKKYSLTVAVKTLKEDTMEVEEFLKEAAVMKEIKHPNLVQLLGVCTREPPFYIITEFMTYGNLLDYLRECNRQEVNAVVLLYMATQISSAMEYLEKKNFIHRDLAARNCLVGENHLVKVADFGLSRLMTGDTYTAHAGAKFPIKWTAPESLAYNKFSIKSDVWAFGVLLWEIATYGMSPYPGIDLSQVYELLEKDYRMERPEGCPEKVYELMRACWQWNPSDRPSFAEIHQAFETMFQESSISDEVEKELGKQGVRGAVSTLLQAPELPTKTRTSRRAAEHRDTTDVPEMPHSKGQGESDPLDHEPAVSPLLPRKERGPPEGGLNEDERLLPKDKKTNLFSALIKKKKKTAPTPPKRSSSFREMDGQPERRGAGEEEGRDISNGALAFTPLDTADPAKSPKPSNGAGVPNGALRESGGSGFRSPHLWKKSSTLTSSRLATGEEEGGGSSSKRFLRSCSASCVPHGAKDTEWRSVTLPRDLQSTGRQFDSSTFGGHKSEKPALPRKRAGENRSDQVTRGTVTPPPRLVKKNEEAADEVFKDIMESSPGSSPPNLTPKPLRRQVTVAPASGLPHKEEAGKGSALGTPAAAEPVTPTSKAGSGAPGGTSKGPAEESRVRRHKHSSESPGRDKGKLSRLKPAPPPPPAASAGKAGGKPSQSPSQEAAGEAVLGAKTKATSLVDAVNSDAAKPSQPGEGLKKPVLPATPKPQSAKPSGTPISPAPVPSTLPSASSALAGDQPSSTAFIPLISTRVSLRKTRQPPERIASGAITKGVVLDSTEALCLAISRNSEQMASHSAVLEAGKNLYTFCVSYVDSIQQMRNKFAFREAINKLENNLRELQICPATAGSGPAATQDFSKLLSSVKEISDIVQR
Chain of YES/YES1 (P07947 whole entry): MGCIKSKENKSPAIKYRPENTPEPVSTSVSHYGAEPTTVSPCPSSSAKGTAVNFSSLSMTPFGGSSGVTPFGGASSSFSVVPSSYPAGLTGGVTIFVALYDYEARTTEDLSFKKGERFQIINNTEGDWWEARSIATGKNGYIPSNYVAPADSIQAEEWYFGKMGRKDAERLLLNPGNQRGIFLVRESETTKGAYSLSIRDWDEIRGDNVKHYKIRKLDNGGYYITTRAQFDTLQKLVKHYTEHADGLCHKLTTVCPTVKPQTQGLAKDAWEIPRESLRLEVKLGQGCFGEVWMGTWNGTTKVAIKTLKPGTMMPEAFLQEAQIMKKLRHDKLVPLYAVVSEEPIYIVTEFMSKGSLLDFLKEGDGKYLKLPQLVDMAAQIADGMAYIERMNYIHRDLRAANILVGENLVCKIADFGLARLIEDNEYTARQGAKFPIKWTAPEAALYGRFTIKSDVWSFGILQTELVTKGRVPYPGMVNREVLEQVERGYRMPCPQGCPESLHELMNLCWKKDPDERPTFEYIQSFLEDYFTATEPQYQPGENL
Chain of EPHB1 (P54762 18-984): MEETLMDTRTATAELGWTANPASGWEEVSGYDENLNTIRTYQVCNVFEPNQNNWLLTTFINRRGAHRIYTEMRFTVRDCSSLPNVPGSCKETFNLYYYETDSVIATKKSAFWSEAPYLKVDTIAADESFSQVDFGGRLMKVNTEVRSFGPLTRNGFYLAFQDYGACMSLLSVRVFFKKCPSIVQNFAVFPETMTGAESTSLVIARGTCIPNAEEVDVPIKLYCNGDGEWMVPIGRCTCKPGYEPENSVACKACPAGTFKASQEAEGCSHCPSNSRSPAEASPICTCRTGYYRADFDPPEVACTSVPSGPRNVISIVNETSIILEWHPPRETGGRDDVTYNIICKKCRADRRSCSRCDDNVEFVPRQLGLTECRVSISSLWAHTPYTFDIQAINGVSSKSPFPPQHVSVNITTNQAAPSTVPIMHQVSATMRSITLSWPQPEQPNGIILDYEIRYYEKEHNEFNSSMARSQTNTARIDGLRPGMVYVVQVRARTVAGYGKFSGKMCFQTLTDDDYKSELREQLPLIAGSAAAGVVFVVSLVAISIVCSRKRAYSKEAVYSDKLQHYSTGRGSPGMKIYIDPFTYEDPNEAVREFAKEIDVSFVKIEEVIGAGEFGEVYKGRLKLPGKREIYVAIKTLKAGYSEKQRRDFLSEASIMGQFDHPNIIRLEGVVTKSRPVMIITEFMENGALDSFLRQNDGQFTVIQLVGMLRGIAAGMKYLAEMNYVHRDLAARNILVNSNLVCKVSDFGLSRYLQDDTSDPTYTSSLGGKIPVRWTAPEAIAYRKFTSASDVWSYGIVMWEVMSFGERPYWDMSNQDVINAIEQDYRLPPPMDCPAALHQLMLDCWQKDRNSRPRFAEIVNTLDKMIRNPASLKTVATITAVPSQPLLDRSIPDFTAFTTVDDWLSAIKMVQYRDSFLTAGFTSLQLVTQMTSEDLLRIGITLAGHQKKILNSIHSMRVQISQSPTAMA

CCN1CCN(C(=O)c2ccc(Nc3ncc4c(n3)N(C)C(=O)N(c3cc(NC(=O)Nc5ccccc5OC)ccc3C)C4)cn2)CC1 [Compound No. 14, 1-(3-(7-((6-(4-ethylpiperazin-1-carbonyl)pyridin-3-yl)amino)-1-methyl-2-oxo-1,4-dihydropyrimido[4,5-d]pyrimidin-3(2H)-yl)-4-methylphenyl)-3-(2-methoxyphenyl)urea]
≤ 30%: all assays above
